This passage reports IC50 results from BindingDB's records for doi:10.1021/jm060199b (Abbott Laboratories, 2006).

SMILES strings stand for the structures.

As usually defined, the IC50 is the concentration needed to halve the response being measured. Low readings indicate greater potency, high ones weaker potency.

The target of this assay is Mitogen-activated protein kinase 8 (Homo sapiens, UniProt P45983). As to the kind of experiment: ATF-2 Phosphorylation Assay.
Sequence of Mitogen-activated protein kinase 8 (P45983 whole entry): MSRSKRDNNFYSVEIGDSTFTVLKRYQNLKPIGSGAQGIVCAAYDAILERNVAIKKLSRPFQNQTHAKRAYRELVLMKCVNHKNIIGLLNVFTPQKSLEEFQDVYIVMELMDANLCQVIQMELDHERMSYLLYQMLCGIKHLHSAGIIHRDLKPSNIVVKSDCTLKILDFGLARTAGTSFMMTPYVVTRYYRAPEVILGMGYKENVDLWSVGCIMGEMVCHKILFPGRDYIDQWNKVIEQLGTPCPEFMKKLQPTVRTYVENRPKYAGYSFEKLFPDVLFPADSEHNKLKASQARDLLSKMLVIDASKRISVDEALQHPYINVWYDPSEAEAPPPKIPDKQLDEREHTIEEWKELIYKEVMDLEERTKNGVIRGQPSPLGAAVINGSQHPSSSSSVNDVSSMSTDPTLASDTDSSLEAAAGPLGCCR

For the molecule `CCOc1cccc(NC(C)=O)n1` [N-(6-ethoxypyridin-2-yl)acetamide], the IC50 was above 10 µM.
